Experimental findings from US12070457B2, “Substituted pyridines, pyridazines, pyrimidines, and 1,2,3-triazines as bruton's tyrosine kinase inhibitors” (HUTCHISON MEDIPHARMA LIMITED, priority 2020, dated 2024) are described below.

The target of assay [1] is BTK recombinant protein (Homo sapiens (Human), UniProt Q06187). Put plainly: Determination of biochemical BTK (Z'-LYTE kinase assay). An excerpt: Example 2 Determination of Biochemical BTK
(§1) 1. Reagents and Materials
• BTK recombinant protein: Invitrogen, Cat #PV3363; • Z′-LYTE® kinase test kit-tyrosine 1 peptide: Invitrogen, Cat #PV3190; • 384-well low-flange black flat-bottomed polystyrene NBS microplate, no lid, no sterilization: Corning, Cat #3575; • 96-well polystyrene conical-bottomed MicroWell™ plate, sealed with a lid: Thermo Scientific™ Nunc™, Cat #277143; • Envision multi-mode plate reader: PerkinElmer; • Mixmate® shaker: Eppendorf; • TS-2102 shaking incubator: TENSUC; 2. Methods
Z′-LYTE® biochemical assay employs a fluorescence resonance energy transfer (FRET)-based, coupled-enzyme format and is based on the differential sensitivity of phosphorylated and non-phosphorylated peptides to proteolytic cleavage. Both ends of the short peptide substrate are labeled with two fluorescent groups to form a FRET paired combination. In the primary reaction (the Kinase Reaction), the kinase transfers the γ-phosphate of ATP to a single […] residue on the short peptide substrate. In the secondary reaction (the development reaction), the non-phosphorylated short peptides were recognized and cleaved by a site-specific protease (the development reagent). Phosphorylated short peptides can resist such cleavage. Cleavage of short peptides can disrupt the donor (such as coumarin) and receptor fluorophores (fluorescein) on the short peptides, while the phosphorylated short peptides can maintain FRET. The calculation method of the ratio is as follows, and the ratio of the respective emission signals generated by the donor fluorophores emitted (after excitation at 400 nm) to the receptors is calculated. Emission signal ratio=emitted light by coumarin (445 nm)/emitted light by fluorescein (520 nm). If the FRET short peptide is phosphorylated (such as no kinase inhibitor), the emitted light ratio will remain in a lower level. If the FRET short peptide is non-phosphorylated (such as kinase inhibitor), the emitted light ratio will be in a higher level. In this way, the inhibitory effects of different compound inhibitors on BTK kinase activity would be distinguished.
The experiment were carried out according to the instructions of the Z′-LYTE® kinase test kit-tyrosine 1 peptide. Reagent preparation: 1.33× kinase buffer: 5× kinase buffer was diluted with water to 1.33× kinase buffer; an enzyme solution: the kinase was dissolved in 1.33× kinase buffer with the final working concentration being 3.32 nM; a short peptide solution: a short peptide stock solution (1 mM dissolved in DMSO) was dissolved in 1.33× kinase buffer with the final working concentration being 2 μM; Z′-LYTE Tyr01 phosphorylated short peptide solution, 0.6 μl of stock solution (1 mM dissolved in DMSO) was dissolved in 149.4 μl of 1.33× kinase buffer; an ATP solution: an ATP stock solution (10 mM aqueous solution) was dissolved in 1.33× kinase buffer with the final working concentration being 32 μM; a color-developing solution: color-developing solution B was dissolved in color-developing buffer with the final working concentration being 1× color-developing solution; 4× compound preparation: the compound was diluted in 3-fold gradient concentration to finally obtain 4% DMSO aqueous solution containing different concentrations of the compound, with the final working concentration being 3000, 1000, 333.33, 111.11, 37.04, 12.35, 4.12, 1.37 nM, 8 concentration points in total.
Specific steps of the experiment: In the experiment, there were three control groups, each with 8 replicate wells, which were C1 100% inhibition group (no ATP), C2 0% inhibition group (with ATP), and C3 100% phosphorylation group, respectively. 2.5 μl of serially diluted compound was added to each well of a 384-well plate, with double replicate wells, and 4% DMSO solution was added to wells C1, C2, and C3. […]

For assay [2], the target named is phosphorylated BTK in Ramos cells (Homo sapiens (Human), UniProt Q06187). As to the kind of experiment: Determination of phosphorylated BTK in Ramos cells (BTK phospho-Y223 HTRF). The assay is classed as cell-based. The method, then: Determination of Phosphorylated BTK in Ramos Cells
as §1
• Ramos cells: Ramos cells were purchased from American Standard Biological Collection Center ATCC Cell Bank, PRMI 1640 medium containing L-glutamine, 1.5 g/L of sodium bicarbonate, 2.383 g/L of HEPES solution, 0.11 g/L of sodium pyruvate and 4.5 g/L of glucose was used, added 10% fetal bovine serum FBS, and placed in a 5% C02, 37° C. cell incubator for normal culture; • PRMI 1640 medium: GIBCO, Cat #A10491-01; • Fetal bovine serum (FBS): GIBCO, Cat #100100-147; • Hank's balanced salt solution (HBSS): GIBCO, Cat #14025-092; • Immunoglobulin M (IgM): Jackson Immuno, Cat #109-006-129; • 3% hydrogen peroxide (3% H2O2): Sigma, Cat #88597-100 ML-F; • Phosphorylated BTK HTRF detection kit (BTK phospho-Y223 HTRF kit): Cisbio, Cat #63ADK017PEH; • Microwell plate reader: Envision, Perkin Elmer; • 384-well plate CulturPlate™384: Perkin Elmer, Cat #6007680 • 96-well plate: Corning, Cat #3799. 2. Methods
Ramos cells were starved in PRMI 1640 medium with 1% FBS for 2 hours. The starved Ramos cells were diluted with Hank's balanced salt solution to 5.0×10^6 cells/ml, seeded in a 96-well plate with 20 μL/well (1.0×10^5 cells/well), and cultured in a 5% CO2, 37° C. cell incubator. […]
The 384 well plate incubated overnight in the constant temperature incubator was taken out to detect the luminescence signal using the Envision microwell plate reader at the […]. The reading value at 665 nm/615 nm of each well multiplied by 104 was used as the signal value of each well.
The average signal value of the wells supplemented with the mixed solution of human immunoglobulin M (final concentration was 10 μg/mL) and hydrogen peroxide (final concentration was 3.3 mM) without the test compound was regarded as the high value, and the average signal value of the wells without immunoglobulin M stimulation and without the test compound was regarded as the low value. According to the signal value in each well, the inhibition ratio (%) of each concentration of compounds was calculated, and the 205 model in XL-Fit 5.3 software (ID Business Solutions Limited) was used to obtain an IC50 value. […]
In general terms: Time-resolved FRET reads energy transfer from a long-lived donor to a nearby acceptor.

Assay [3] concerns B cell activation in mice whole blood (BTK target). As to the kind of experiment: In vivo inhibitory effect on BTK target (anti-IgD antibody-induced B cell activation in mice whole blood). Set-up: species or system mouse. The method, then:
Objects: B cells in mice whole blood were induced and activated by the anti-IgD antibody, and the inhibitory effect of the compound of the present invention on B cell activation in vivo was studied, so as to determine the inhibitory effect of the compound of the present invention on the BTK target in vivo.
Methods: C57BL/6 mice (female, 18-20 g, purchased from Shanghai Lingchang Biotechnology Co., Ltd.) were grouped according to Table 2.
The animals of each group were administered, then were placed in CO2 for anesthesia at designated time points, blood samples were taken from rats via retro-orbital bleeding, and heparin was used for anticoagulation; 90 μL of whole blood was taken from mice of each group, and added to a 96 well culture plate, and anti-mouse IgD antibody (BIO-RAD, Cat #MCA4693) was added to each well to a final concentration of 0.01 μg/μL (respectively for the each drug-treated group and anti-IgD antibody-inducted vehicle group); in addition, 90 μL of whole blood of mice in the vehicle group was taken and added to the 96-well culture plate, and PBS (phosphate buffer, GIBCO, Cat #C20012500BT) was added to each well to a final concentration of 0.01 μg/μL (namely, the vehicle control group); Each group was mixed well and incubated in a 37° C./5% CO2 incubator for 4 hours. In addition, the blood of mice in the drug-treated group was centrifuged to separate plasma for blood concentration analysis.
B cell activation ratio=percentage of CD69^+CD19^+ double positive B cells/percentage of CD19^+ single positive B cells
All data are represented by mean±standard error. For the comparison between each drug-treated group and the anti-IgD antibody-induced vehicle group, p value was calculated by Graphpad Prism using one-way ANOVA analysis of variance and Dunnett's test, and for the comparison between each drug-treated group, p value was calculated by using unpaired t test.

As usually defined, the IC50 is the concentration at which inhibition is half-maximal.

Chain of BTK recombinant protein (Q06187 whole entry): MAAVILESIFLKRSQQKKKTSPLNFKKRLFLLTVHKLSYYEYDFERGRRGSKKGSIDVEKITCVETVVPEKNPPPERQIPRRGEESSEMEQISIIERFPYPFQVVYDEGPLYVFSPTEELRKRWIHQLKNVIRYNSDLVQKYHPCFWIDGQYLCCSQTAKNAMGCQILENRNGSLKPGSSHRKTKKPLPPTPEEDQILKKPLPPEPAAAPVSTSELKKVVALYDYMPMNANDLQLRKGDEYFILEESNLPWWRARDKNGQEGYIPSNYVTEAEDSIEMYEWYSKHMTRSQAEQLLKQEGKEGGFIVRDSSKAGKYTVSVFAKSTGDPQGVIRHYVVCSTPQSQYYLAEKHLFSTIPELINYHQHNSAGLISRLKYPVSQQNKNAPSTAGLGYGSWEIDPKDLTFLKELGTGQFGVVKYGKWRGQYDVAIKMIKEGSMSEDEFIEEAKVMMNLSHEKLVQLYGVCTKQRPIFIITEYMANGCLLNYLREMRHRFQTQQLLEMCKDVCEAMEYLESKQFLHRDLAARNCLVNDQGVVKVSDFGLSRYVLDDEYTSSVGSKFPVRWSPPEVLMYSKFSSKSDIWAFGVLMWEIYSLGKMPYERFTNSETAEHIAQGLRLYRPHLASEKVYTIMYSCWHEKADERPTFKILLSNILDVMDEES
Chain of phosphorylated BTK in Ramos cells (Q06187 whole entry): as above

On to “2-(3′-(hydroxymethyl)-5-((5-(2-methoxyethyl)-4-methyl-4,5,6,7-tetrahydropyrazolo[1,5-α]pyrazin-2-yl)amido)-1-methyl-6-oxo-1,6-dihydro-[3,4′-bispyridin]-2′-yl)-7,7-dimethyl-7,8-dihydro-2H-cyclopenta[4,5]pyrrolo[1,2-d][1,2,4]triazin-1(6H)-one optically pure enantiomer [Compound 120]”, for which the half-maximal inhibitory concentration (IC50) in assay [1] was 8 nM; in assay [2], 5 nM.
In the case of `CC1c2cc(Nc3cc(-c4ccnc(-n5ccn6c7c(cc6c5=O)CCC7)c4CO)cn(C)c3=O)nn2CCN1C1COC1` (racemic) [Compound 144], the values for the half-maximal inhibitory concentration (IC50) in assay [1] and in assay [2] were 18 nM and 38 nM, respectively.
Take `COCCN1CCn2nc(Nc3cc(-c4ccnc(-n5ccn6c7c(cc6c5=O)CCC7)c4CO)cn(C)c3=O)cc2C1C` (racemic) [Compound 145]: the IC50 in assay [1] was found to be 33 nM; in assay [2] it was 16 nM.
In the case of `Cn1cc(-c2ccnc(-n3ccn4c5c(cc4c3=O)CC(C)(C)C5)c2CO)cc(Nc2ccc(N3CCN4CCOCC4C3)cn2)c1=O` (racemic) [Compound 232], the half-maximal inhibitory concentration (IC50) in assay [1] worked out at 12 nM; in assay [2], 8 nM.
`Cn1cc(-c2ccnc(-n3ccn4c5c(c(F)c4c3=O)CCCC5)c2CO)cc(Nc2cc3n(n2)CCOC3)c1=O` [compound 176]: in assay [3] (5 mg/kg oral single, 16 h), the “B cell activation ratio (the proportion of activated B cells to total B cells)” value turned out to be 13.9 and the “Inhibition ratio (%)” value stood at 48%. The “inhibition ratio on B cell activation” value in assay [3] (5 mg/kg, after 16 hours of administration, anti-IgD antibody-induced, mice whole blood) turned out to be 48%.
